Results published in patent US20240374558A1, “PREPARATION OF PHENE[…] […] STEREOISOMERS THEREOF AND PRECURSORS THEREOF” (priority 2022, published 2024).
Like-named read-outs stand apart in the source and are kept apart here.

How the values were obtained:
[1] = self-administration, healthy volunteers; Lourdes et al. 2021; cited from earlier work
PTSD symptoms = conditions: clinical case series of 21 individuals; cited from earlier work
mouse model of PTSD = test: Fear extinction in a mouse model of PTSD; format: in vivo; conditions: 30 mg/kg, IP
Description: FIGS. 1A-1D: Methylone improves fear extinction recall in a mouse model of PTSD. (FIG. 1A) Schematic of experimental design. A single CS-US (tone-shock) pairing on day 1 was followed by 6 CS presentations in a novel context (context B). Methylone or saline vehicle was injected 30 min prior to extinction training on day 2. On day 3, the time spent freezing to the CS was quantified. […] (FIG. 1C) The time freezing before vs. during each of 6 cues on day 3 (to control for locomotor effects) are shown. There was a significant cue x drug interaction (F(5,130)=2.409, p<0.05). […] N=12 for methylone group (30 mg/kg, IP, orange diamonds) and N=16 for saline control group (black squares). *p<0.05
Effective PTSD treatments facilitate the disassociation between a traumatic memory and the patient's fear response, making cues for the traumatic memory evoke less of a fear response. This is modeled in the mouse fear extinction paradigm which takes place over 3 days. On day 1 (fear conditioning), mice are trained to acquire a “traumatic memory,” namely associating the conditioned stimulus (CS, tone) to the unconditioned stimulus (US, foot shock). On day 2 (extinction training), they are trained to forget the traumatic memory association by presenting the CS 6 times (with no US) in a novel environment. On day 3 (extinction recall), the mice are “asked” if that tone (CS) still elicits a fearful response, as measured by the time spent freezing when the tone is presented. Less time freezing means better extinction recall. Drugs that improve extinction recall reduce freezing time on day 3, and, therefore, show potential as a PTSD treatment.
Using these methods, prodrugs and/or enantiomers are administered to mice and tested for efficacy in the fear extinction model to evaluate their efficacy to treat PTSD and other memory disorders. Anxiolytic Effects in Other Behavioral Anxiety Models

open field test (OFT) [2] = test: Open field test (OFT); design: species or system rats; conditions: rat, in vivo
Description: Additional behavioral testing including the elevated plus maze (EPM) and thigmotaxis in the open field test (OFT) are used to assess the anxiolytic effects of methylone and its prodrugs in mice or rats. […] These models are described in greater detail below. Prodrugs are screened in these behaviors to the anxiolytic efficacy of each compound.
Compounds are screened for their effects on both parameters. Briefly, rodents are assessed in a 30 minute OFT using an automated activity monitoring system. Rodents are acclimated to the room 30 minutes before the start of testing. The following parameters are captured: Horizontal distance travelled, overall ambulatory time, and ambulatory counts. Vertical activity (time and counts), Time in the Center vs. Periphery data are reported in 5-minute bins as well as total time.

open field test (OFT) [3] = conditions: 5, 10, 20 mg/kg, SC, rats; Stefkovi et al. 2017; cited from earlier work
[4] = Pharmacokinetics of methylone after a single IV, PO or IP administration (LC-MS/MS of plasma); format: in vivo, male Sprague Dawley rats
Description: The pharmacokinetic properties of methylone after a single administration intravenously (IV), intraperitoneally (IP), or by oral gavage (PO) in male Sprague Dawley rats has been determined using a liquid chromatography tandem mass spectrometry (LC-MS/MS) method that has been established and validated for methylone in the rat. Rats (n=3 per group) received a single dose of methylone: 5 mg/kg IV, 15 mg/kg IP, or 15 mg/kg PO.
To investigate whether the prodrug extends the half-life or alters other basic pharmacokinetic properties of methylone (e.g., Cmax or Tmax), rats are treated with each prodrug IV, IP, or PO. For each compound, three groups of rats are treated as follows: For group 1, a single dose of methylone is administered to 3 male Sprague-Dawley rats by IV bolus at 5 mg/kg. For group 2, a single dose of methylone is administered to 3 male Sprague-Dawley rats by oral gavage (PO) at 15 mg/kg. For group 3, a single dose of methylone is administered to 3 male Sprague-Dawley rats by IP at 15 mg/kg. For all groups, blood samples are collected from each animal at 0.083, 0.25, 0.5, 1, 2, 4, 8, 12, and 24 hours post-dose for the determination of plasma concentrations. The plasma concentrations are quantified by liquid chromatography tandem mass spectrometry (LC-MS/MS). The bioanalytical assay has been established and validated, providing a lower limit of quantification (LLOQ) of 1 ng/mL and an upper limit of quantification (ULOQ) of 3000 ng/mL for methylone. The plasma concentration-time data are analyzed using Phoenix WinNonlin (version 8.3) to characterize the PK properties of the analyte. The non-compartmental analysis model and the linear/log trapezoidal method are applied to calculating the PK parameters.

[5] = target: T1, norepinephrine transporter (NET) (Rattus norvegicus, UniProt Q63380); test: Competition radioligand binding, [3H]Nisoxetine, brain synaptosome membranes; design: species or system rat (Sprague Dawley)
T1 construct: hippocampus plus overlying occipital cortex for norepinephrine transporter assays; from tissue
T1 sequence (Q63380 1-617): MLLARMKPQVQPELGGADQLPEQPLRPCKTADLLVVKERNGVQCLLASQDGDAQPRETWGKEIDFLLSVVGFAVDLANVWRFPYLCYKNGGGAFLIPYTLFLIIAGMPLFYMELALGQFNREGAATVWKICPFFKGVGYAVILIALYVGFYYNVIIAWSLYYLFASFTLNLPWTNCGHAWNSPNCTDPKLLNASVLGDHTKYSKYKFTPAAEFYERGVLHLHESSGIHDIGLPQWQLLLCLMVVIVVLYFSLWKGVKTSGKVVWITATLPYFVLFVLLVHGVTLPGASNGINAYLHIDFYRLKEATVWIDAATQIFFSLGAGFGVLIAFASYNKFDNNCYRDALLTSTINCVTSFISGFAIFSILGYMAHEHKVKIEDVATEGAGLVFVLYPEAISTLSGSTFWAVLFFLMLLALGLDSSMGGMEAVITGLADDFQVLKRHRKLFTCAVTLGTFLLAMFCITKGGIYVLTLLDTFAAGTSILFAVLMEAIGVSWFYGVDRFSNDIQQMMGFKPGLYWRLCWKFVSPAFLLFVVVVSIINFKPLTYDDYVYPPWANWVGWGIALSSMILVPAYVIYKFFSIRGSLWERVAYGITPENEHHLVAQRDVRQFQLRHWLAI
From the text: Rat brain (Sprague Dawley, 200-250 g) synaptosomes were isolated from midbrain and hindbrain for serotonin transporter assays, striatum for dopamine transporter assays, and hippocampus plus overlying occipital cortex for norepinephrine transporter assays. Radioligands used were: [^3H]Citalopram 81.4 Ci/mmol (PerkinElmer NET1039250UC; Lot No. 2960876). [3H]WIN35428 82.8 Ci/mmol (PerkinElmer NET1033250UC; Lot No. 2891473). [^3H]Nisoxetine 79.2 Ci/mmol (PerkinElmer NET1084250UC; Lot No. 2970324). Non-specific compounds used were: Citalopram (Tocris Bioscience 1427). JHW007 (Tocris Bioscience 4351). Nomifensine (Abcam abl46004). Test Compounds for the study were: racemic methylone HCl; (R)-methylone HCl; (S)-methylone HCl.
For membrane preparations, rat brains were dissected, tissue was added to ice-cold lysis buffer (50 mM Tris HCl; 5 mM MgCl2; 5 mM EDTA; protease inhibitor cocktail) and homogenized. […] A sample of the homogenate was analyzed for protein content using the MERCK® BCA assay. […]
Competition binding assays were carried out in 96-well polypropylene plates in a final volume of 250 μL per well. […] Filters were then dried under a warm air stream, sealed in polyethylene, scintillation cocktail added, and the radioactivity counted in a WALLAC® TriLux 1450 MicroBeta counter. […] Ki was subsequently calculated using the ChengPrusoff equation.

NET = NET (Rattus norvegicus, UniProt Q63380); test: NE release study; format: biochemical
Chain of NET (Q63380 1-617): as above

[6] = system: rat forced swim test (FST); test: Rat forced swim test (FST); format: in vivo; conditions: 10 mg/kg, IP
Description: The forced swim test (FST) is a classic model to assess the antidepressant-like activity of compounds that has been in use for over 40 years (Porsolt et al. (1977) Nature 266:730-732; Detke et al. (1995) Psychopharmacology 121:66-72). […] A single dose of 5 mg/kg methylone reduces immobility by approximately 50% compared to vehicle-treated controls, whereas a 15 mg/kg dose reduces immobility by nearly 100%. Accompanying changes in climbing and/or swimming behavior reflect noradrenergic and serotonergic activities of methylone, respectively.
All FST studies are performed and scored by an experimenter blind to treatment group and according to standard protocols. Briefly, rats are placed in a circular plexiglass container filled with water. Water temperature is maintained at 22-25° C. and changed for every animal. Day 1 (Training) consists of a 15 min acclimation trial, and Day 2 (Testing, 24 h later) consists of the 5 min test. A time sampling procedure is employed where animals are observed every 5 seconds for the duration of the test session (60 counts or 5 minutes) and scored for immobility (defined as the failure to struggle), swimming (defined as a circular movement around the tank), or climbing (defined as an upwards escape behavior). Data are expressed as the percent of the testing session (e.g., the number of immobility counts divided by 60). A p-value less than 0.05 indicates statistical significance after typical statistical analyses (e.g., unpaired t-test or ANOVA).
To determine that the prodrug and/or enantiomer has an antidepressant-like effect and to compare it to methylone, rats are treated with each compound 30 min prior to testing. Additional tests are run 24, 72, 168 hours post-dose or longer. Effects on Fear Extinction in a Model of Post-Traumatic Stress Disorder (PTSD)
Racemic methylone (10 mg/kg, IP) has a maximal antidepressant-like effect in the rat forced swim test (FST), reducing immobility by nearly 100% compared to vehicle treated controls. […]

[7] = XRPD analysis of pre- and post-DVS samples (form stability); format: physicochemical; conditions: after DVS 5-95-5% RH
Description: Two lots of methylone HCl samples were submitted to evaluate the stability of the solid forms under various humidity conditions. Dynamic vapor sorption (DVS) analysis was performed to evaluate the kinetic hygroscopicity and assess if variable humidity XRPD would be necessary, as well as to determine the appropriate humidity condition(s) for such XRPD analysis. Both pre- and post-DVS samples were analyzed by conventional XRPD for solid form confirmation or any potential form changes.
Each sample was prepared in a silicon low background holder using light manual pressure to keep the sample surface flat and level with the reference surface of the sample holder. The single crystal Si low background holder has a circular recess (10 mm diameter and about 0.2 mm depth) that holds the sample. The Rigaku Smart-Lab diffraction system used was configured for Bragg-Brentano reflection geometry using a line source X-ray beam. The Bragg-Brentano geometry was controlled by passive divergence and receiving slits with the sample itself acting as the focusing component for the optics.

SMILES: CNC(C)C(=O)c1ccc2c(c1)OCO2 (centres unmarked) [Methylone, methylone]
- heart rate [1]: increase in heart rate
- systolic and diastolic blood pressure [1]: significant increase
- patients with improved PTSD symptoms (PTSD symptoms): 81%
- fear extinction recall (freezing time during the first cue on day 3) vs saline (mouse model of PTSD): significantly improves fear extinction recall
- locomotor changes on day 3 (mouse model of PTSD): No locomotor changes
- fear extinction recall (freezing time during the first cue on day 3) vs saline (mouse model of PTSD; listed as methylone): significantly reduced
- locomotor activity in the OFT (open field test (OFT) [2]): increases locomotor activity
- time in the center vs the periphery in the OFT (open field test (OFT) [2]): reduces time spent in the center vs the periphery
- thigmotaxis (time spent hugging the perimeter of the open field) (open field test (OFT) [3]): reduce thigmotaxis
- AUC0-last ([4]; Group 1 (IV), 5 mg/kg): 1200 ± 88.2 ng·h/mL
- C0 ([4]; Group 1 (IV), 5 mg/kg): 3018 ± 666 ng/mL
- Cl ([4]; Group 1 (IV), 5 mg/kg): 68.3 ± 5.40 mL/min/kg
- MRT0-last ([4]; Group 1 (IV), 5 mg/kg): 0.439 ± 0.026 h
- Vdss ([4]; Group 1 (IV), 5 mg/kg): 1.98 ± 0.230 L/kg
- AUC0-last ([4]; Group 2 (PO), 15 mg/kg): 2765 ± 657 ng·h/mL
- MRT0-last ([4]; Group 2 (PO), 15 mg/kg): 2.99 ± 0.467 h
- T1/2 ([4]; Group 2 (PO), 15 mg/kg): 3.23 ± 1.99 h
- Tmax ([4]; Group 2 (PO), 15 mg/kg): 1.33 ± 0.577 h
- Cmax ([4]; Group 2 (PO), 15 mg/kg, plasma): 678 ± 243 ng/mL
- AUC0-last ([4]; Group 3 (IP), 15 mg/kg): 4305 ± 1179 ng·h/mL
- MRT0-last ([4]; Group 3 (IP), 15 mg/kg): 1.07 ± 0.211 h
- Cmax ([4]; Group 3 (IP), 15 mg/kg, plasma): 4230 ± 514 ng/mL
- Tmax ([4]; male, Sprague Dawley, rat, plasma, Group 3 (IP), 15 mg/kg, read-out: Tmax): 0.25 h

SMILES: CNC(C)C(=O)c1ccc2c(c1)OCO2 (racemic) [Racemic methylone, methylone]
- IC50 [5]: 3100 nM
- Ki [5]: 1460 nM
- EC50 (NET): 330 nM
- reduction of immobility compared to vehicle treated controls [6]: ~100%

SMILES: CNC(C)Cc1ccc2c(c1)OCO2 (centres unmarked) [MDMA, 3,4-methylenedioxymethamphetamine, reference compound]
- systolic and diastolic blood pressure [1]: significant increase

SMILES: CNC(C)C(=O)c1ccc2c(c1)OCO2.Cl [lot KRR-R&D-2022-II-58, methylone HCl]
- form changes, post-DVS vs pre-DVS XRPD pattern [7]: No form changes
